Experimental data: paper PMC10376326, “Novel Acylselenourea Derivatives: Dual Molecules with Anticancer and Radical Scavenging Activity” (Antioxidants, 2023)

Tested on: HTB-54 (lung) cancer cell line
Assay: MTT cell viability assay, HTB-54
Assay type: cell-based, human
Settings: Homo sapiens, HTB-54, 48 h, read-out: Cell growth %, HTB-54, 10 µM, 48 h, MTT
Description: (§1) Cell lines were purchased from the American Type Culture Collection (ATCC). Cell lines MDA-MB-231, HTB-54, DU-145, and BEAS-2B were cultured in RPMI 1640 medium (Gibco, Thermo Fisher Scientific, Gaithersburg, MD, USA) supplemented with 10% fetal bovine serum (FBS; Gibco), 100 units/mL penicillin, and […] streptomycin (Gibco). HT-29 cell line was grown in McCoy’s 5A (Gibco), 10% FBS, 100 units/mL penicillin, and 100 μg/mL streptomycin. Cells were maintained at 37 °C and 5% CO2. The culture medium was changed every three days.
(§2) The cell viability of each compound was measured by MTT colorimetric assay. Each compound was dissolved in DMSO at a concentration of 0.01 M. Each compound was tested at two different concentrations (10 and 50 µM) in MDA-MB-231 (breast), HTB-54 (lung), DU-145 (prostate), and HT-29 (colon) human cancer cell lines. Serial dilutions were prepared with supplemented culture medium. […] IC50 and selectivity indexes (SI) were determined.
(§3) Briefly, 1 × 10^4 tumor cells per well were grown in 96-well plates for 24 h. Then, these cells were incubated for 48 h with either DMSO (control) or a different concentration of each of the tested compounds. The cell viability was determined by adding 20 μL of MTT two hours and a half before the termination point. After this time, the culture medium was removed. The resulting formazan crystals were dissolved in 50 μL of DMSO, and the absorbance was measured at 570 nm. Results are expressed as % cell growth. The data were obtained from at least three independent experiments performed in quadruplicate.
In the case of `C=CCNC(=[Se])NC(=O)c1cccnc1` [Compound 7.II, N-(allylcarbamoselenoyl)nicotinamide], the activity at 10 µM is reported as 21.4 ± 8.2%.

Same assay, conditions: Homo sapiens, HTB-54, 48 h, read-out: Cell growth %, HTB-54, 50 µM, 48 h, MTT
With `C=CCNC(=[Se])NC(=O)c1cccnc1` [Compound 7.II, N-(allylcarbamoselenoyl)nicotinamide] the activity at 50 µM was 10.2 ± 5.8%.

Same assay, conditions: Homo sapiens, HTB-54, 48 h, read-out: IC50 HTB-54, Lung, MTT, 48 h
`C=CCNC(=[Se])NC(=O)c1cccnc1` [Compound 7.II, N-(allylcarbamoselenoyl)nicotinamide] gave an IC50 of 12 ± 2.7 µM.

Same assay, conditions: IC50 (BEAS-2B)/IC50 (HTB-54)
Work on `C=CCNC(=[Se])NC(=O)c1cccnc1` [Compound 7.II, N-(allylcarbamoselenoyl)nicotinamide] yielded an SI of 0.5.

Tested on: non-malignant BEAS-2B lung cell line
Assay: MTT cell viability assay, BEAS-2B
Assay type: cell-based
Settings: Homo sapiens, normal lung, 48 h
Description: as §1, §2, §3
In the case of `C=CCNC(=[Se])NC(=O)c1cccnc1` [Compound 7.II, N-(allylcarbamoselenoyl)nicotinamide], the IC50 is reported as 6.3 ± 1.5 µM.

Tested on: HT-29 (colon) cancer cell line
Assay: MTT cell viability assay, HT-29
Assay type: cell-based
Settings: Homo sapiens, HT-29, 48 h, HT-29, 10 µM, read-out: Cell growth %
Description: as §1, §2, §3
`C=CCNC(=[Se])NC(=O)c1cccnc1` [Compound 7.II, N-(allylcarbamoselenoyl)nicotinamide] showed an activity at 10 µM of 110 ± 19.4%.

Same assay, conditions: Homo sapiens, HT-29, 48 h, HT-29, 50 µM, read-out: Cell growth %
Work on `C=CCNC(=[Se])NC(=O)c1cccnc1` [Compound 7.II, N-(allylcarbamoselenoyl)nicotinamide] yielded an activity at 50 µM of 19 ± 3.6%.

Tested on: DU-145 cells
Assay: Protective effects against H2O2-induced oxidative stress in DU-145 cells (MTT)
Assay type: cell-based, human
Settings: increase-fold of cell survival; compound 0.0003 mg/mL, 200 µM H2O2, DU-145
Description: Cells were treated with the selected compounds and then oxidative damage to DU-145 cells was induced using different concentrations of H2O2 (200, 250 and 300 µM), and cell viability was assessed by the MTT method. Briefly, 2.5 × 10^4 DU-145 cells per well were added in 96-well plates. After 24 h of incubation, DMSO, 1.I, 2.I, 5.I, 7.II, 10.II, and ascorbic acid were added to each well at two different concentrations (0.0015 mg/mL and 0.0003 mg/mL) and incubated for 1 h. After that, H2O2 was added at the concentrations of 200, 250, and 300 µM, and the cells were incubated for 12 h to induce cell damage. MTT assay was used to measure cell viability. For each treatment, the mean cell viability was calculated from three independent experiments. The DMSO-treated controls were assigned with a cell viability value of 100% (Vcontrol). The results are expressed as a cell growth inhibition % caused by H2O2 and the increased fold of cell survival, as follows: • Cells without compounds, only treated with H2O2: (2) % Cell growth inhibition=Acontrol - Asample/Acontrol × 100
• Cells treated with compounds and H2O2:
(3) % Cell growth inhibition=Asample (compound) - Asample (compound+H2O2)/Acontrol × 100
(4) Increase-fold of cell survival=% cell growth inhibition (H2O2)/% cell growth inhibition (compound+ H2O2)
The standard error of the mean (SEM) was calculated in at least three independent experiments performed in quadruplicates.
For `C=CCNC(=[Se])NC(=O)c1cccnc1` [Compound 7.II, N-(allylcarbamoselenoyl)nicotinamide], the Increase-fold was 2.3 ± 1.2.

Same assay, conditions: increase-fold of cell survival; compound 0.0003 mg/mL, 250 µM H2O2, DU-145
For `C=CCNC(=[Se])NC(=O)c1cccnc1` [Compound 7.II, N-(allylcarbamoselenoyl)nicotinamide], the Increase-fold was 1.6 ± 0.2.

Same assay, conditions: increase-fold of cell survival; compound 0.0003 mg/mL, 300 µM H2O2, DU-145
`C=CCNC(=[Se])NC(=O)c1cccnc1` [Compound 7.II, N-(allylcarbamoselenoyl)nicotinamide] gave an Increase-fold of 1.8 ± 0.4.

Same assay, conditions: increase-fold of cell survival; compound 0.0015 mg/mL, 200 µM H2O2, DU-145
Work on `C=CCNC(=[Se])NC(=O)c1cccnc1` [Compound 7.II, N-(allylcarbamoselenoyl)nicotinamide] yielded an Increase-fold of 1.5 ± 0.2.

Same assay, conditions: increase-fold of cell survival; compound 0.0015 mg/mL, 250 µM H2O2, DU-145
With `C=CCNC(=[Se])NC(=O)c1cccnc1` [Compound 7.II, N-(allylcarbamoselenoyl)nicotinamide] the Increase-fold was 1.2 ± 0.3.

Same assay, conditions: increase-fold of cell survival; compound 0.0015 mg/mL, 300 µM H2O2, DU-145
`C=CCNC(=[Se])NC(=O)c1cccnc1` [Compound 7.II, N-(allylcarbamoselenoyl)nicotinamide] gave an Increase-fold of 1.4 ± 0.3.

Tested on: MDA-MB-231, HT-29, HTB-54 and DU-145 cancer cell lines
Assay: MTT cell viability assay, statements over the panel of cancer cell lines
Assay type: cell-based, human
Settings: in at least three of the four cancer cell lines tested
Description: as §1, §2, §3
For `C=CCNC(=[Se])NC(=O)c1cccnc1` [Compound 7.II, N-(allylcarbamoselenoyl)nicotinamide], the cell growth was “below 55%”.

Tested on: DU-145 (prostate) cancer cell line
Assay: MTT cell viability assay, DU-145
Assay type: cell-based, human
Settings: Homo sapiens, DU-145, 48 h, read-out: Cell growth %, DU-145, 10 µM, 48 h, MTT
Description: as §1, §2, §3
`C=CCNC(=[Se])NC(=O)c1cccnc1` [Compound 7.II, N-(allylcarbamoselenoyl)nicotinamide] showed an activity at 10 µM of 50.6 ± 2.4%.

Same assay, conditions: Homo sapiens, DU-145, 48 h, read-out: Cell growth %, DU-145, 50 µM, 48 h, MTT
`C=CCNC(=[Se])NC(=O)c1cccnc1` [Compound 7.II, N-(allylcarbamoselenoyl)nicotinamide] gave an activity at 50 µM of 8.95 ± 4.9%.

Tested on: MDA-MB-231 (breast) cancer cell line
Assay: MTT cell viability assay, MDA-MB-231
Assay type: cell-based, human
Settings: Homo sapiens, MDA-MB-231, 48 h, read-out: Cell growth %, MDA-MB-231, 10 µM, 48 h, MTT
Description: as §1, §2, §3
With `C=CCNC(=[Se])NC(=O)c1cccnc1` [Compound 7.II, N-(allylcarbamoselenoyl)nicotinamide] the activity at 10 µM was 33.9 ± 6.7%.

Same assay, conditions: Homo sapiens, MDA-MB-231, 48 h, read-out: Cell growth %, MDA-MB-231, 50 µM, 48 h, MTT
Molecule `C=CCNC(=[Se])NC(=O)c1cccnc1` [Compound 7.II, N-(allylcarbamoselenoyl)nicotinamide] has an activity at 50 µM of 10.5 ± 7%.

Tested on: not listed separately
Assay: DPPH radical scavenging assay
Assay type: biochemical
Settings: 0.003 mg/mL, 0 min
Description: Different methods are available to quantify the antioxidant capacity of natural or novel molecules. Notable among these are the ABTS^•+ and DPPH^• methods, which measure the quenching efficiency in vitro for known concentrations of preformed radicals. In this work, the DPPH^• colorimetric assay was carried out. Measurements were recorded on a BioTeck PowerWave XS spectrophotometer (BioTeck Instruments, Winooski, VT, USA) and data were collected using KCJunior v.1.41. software (BioTeck Instruments, Winooski, VT, USA). Compounds with potent activity were selected to further determine their protective effect against ROS-induced cell death caused by H2O2.
DPPH colorimetric assay was performed to determine the in vitro radical scavenging activity of the acylselenourea derivatives. DPPH assay was performed as described by Svinyarov. For each acylselenourea, a stock solution of 1 mg/mL in dimethyl sulfoxide (DMSO) was made, and these solutions were used to prepare the different concentrations employed in the assay. The compounds were tested at two different concentrations (0.003 and 0.03 mg/mL). Intermediate solutions were prepared in methanol and a volume of 100 µL of each was added to each well of the plate. Then, 100 µL of DPPH^• (previously prepared at a concentration of 0.04 mg/mL in methanol and preserved in the dark) was added to the previous methanolic acylselenourea solutions. The discoloration of the purple radical to the yellow reduced form was followed at 517 nm at different time points (0, 5, 15, 30, 60, 90, and 120 min). Ascorbic acid and trolox were used as positive controls. All measurements were carried out in triplicate. Results are expressed as the percentage of the radicals scavenged, calculated using the following formula: (1) % DPPH radical scavenging=Acontrol - Asample/Acontrol × 100 where Acontrol refers to the absorbance of the negative control and Asample refers to the absorbance of the tested compounds. Results are expressed as percentage of DPPH radical scavenging ± SD.
`C=CCNC(=[Se])NC(=O)c1cccnc1` [Compound 7.II, N-(allylcarbamoselenoyl)nicotinamide] showed an inhibition of 3.6 ± 2.3%.

Same assay, conditions: 0.003 mg/mL, 5 min
`C=CCNC(=[Se])NC(=O)c1cccnc1` [Compound 7.II, N-(allylcarbamoselenoyl)nicotinamide] showed an inhibition of 12 ± 2.2%.

Same assay, conditions: 0.003 mg/mL, 15 min
`C=CCNC(=[Se])NC(=O)c1cccnc1` [Compound 7.II, N-(allylcarbamoselenoyl)nicotinamide] showed an inhibition of 16.8 ± 1.3%.

Same assay, conditions: 0.003 mg/mL, 30 min
With `C=CCNC(=[Se])NC(=O)c1cccnc1` [Compound 7.II, N-(allylcarbamoselenoyl)nicotinamide] the inhibition was 18.9 ± 1.3%.

Same assay, conditions: 0.003 mg/mL, 60 min
Molecule `C=CCNC(=[Se])NC(=O)c1cccnc1` [Compound 7.II, N-(allylcarbamoselenoyl)nicotinamide] has an inhibition of 20.3 ± 1.2%.

Same assay, conditions: 0.003 mg/mL, 90 min
Molecule `C=CCNC(=[Se])NC(=O)c1cccnc1` [Compound 7.II, N-(allylcarbamoselenoyl)nicotinamide] has an inhibition of 20.7 ± 1.3%.

Same assay, conditions: 0.003 mg/mL, 120 min
Molecule `C=CCNC(=[Se])NC(=O)c1cccnc1` [Compound 7.II, N-(allylcarbamoselenoyl)nicotinamide] has an inhibition of 20.7 ± 1.3%.

Same assay, conditions: 0.03 mg/mL
In the case of `C=CCNC(=[Se])NC(=O)c1cccnc1` [Compound 7.II, N-(allylcarbamoselenoyl)nicotinamide], the “time to reach the highest DPPH inhibition” value is reported as 5 min.

Same assay, conditions: 0.03 mg/mL, 0 min
In the case of `C=CCNC(=[Se])NC(=O)c1cccnc1` [Compound 7.II, N-(allylcarbamoselenoyl)nicotinamide], the inhibition is reported as 56.3 ± 6.2%.

Same assay, conditions: 0.03 mg/mL, 5 min
Molecule `C=CCNC(=[Se])NC(=O)c1cccnc1` [Compound 7.II, N-(allylcarbamoselenoyl)nicotinamide] has an inhibition of 90 ± 1.3%.

Same assay, conditions: 0.03 mg/mL, 15 min
With `C=CCNC(=[Se])NC(=O)c1cccnc1` [Compound 7.II, N-(allylcarbamoselenoyl)nicotinamide] the inhibition was 95.7 ± 0.4%.

Same assay, conditions: acylselenourea analogs, 0.03 mg/mL, 90 min
In the case of `C=CCNC(=[Se])NC(=O)c1cccnc1` [Compound 7.II, N-(allylcarbamoselenoyl)nicotinamide], the “DPPH Inhibitory%” value is reported as 96.2 ± 0.2%.
